Data reported in PubChem BioAssay AID240 (DTP/NCI, 2004).
Where “and” joins values, the source holds several entries; their conditions need not be identical. Equal values may be shown once. Toxic doses and inconclusive results are not listed. Starred links: 1 amine or outer side, 2 acyl side, 3 side chain; linkers in the order of their positions; H or OH if unused. Positions of bridges follow the written chain, without caps; N, C: chain ends. Non-standard residues stand in square brackets, D forms with d. Residues, ends and D or L forms follow the SMILES beside them. Chains are numbered I, II in the order given. Actinocin(9to1) = Cc1c2oc3c(C)ccc(C(=O)[*:1])c3nc-2c(C(=O)[*:2])c(N)c1=O; aThr = C[C@H](O)[C@H](N)C(=O)O; NMeV = CN[C@H](C(=O)O)C(C)C; Sar = CNCC(=O)O

System: Lymphoma 4 ip in BDF1 mice, median survival
Assay: NCI In Vivo Anticancer Drug Screen. Data for tumor model Lymphoma 4 (intraperitoneal) in B6D2F1 (BDF1) mice
Details: endpoint: median survival time, schedule: Q01DX010 (ip), higher = longer survival
Experimental: The antitumor activity of compounds was measured in mice bearing transplantable tumors. Survival or tumor size were measured and the results are expressed as the measurement made in the treated group (T) divided by the measurement made in the vehicle treated control group (C). The tumor model used in this assay is Lymphoma 4 (intraperitoneal) in B6D2F1 (BDF1) mice

[1] = dose: 0.25 mg/kg/injection, vehicle: saline
[2] = dose: 0.5 mg/kg/injection, vehicle: saline
[3] = dose: 1.0 mg/kg/injection, vehicle: saline
[4] = dose: 2.0 mg/kg/injection, vehicle: saline
[5] = dose: 31.3 mg/kg/injection, vehicle: saline
[6] = dose: 62.5 mg/kg/injection, vehicle: saline
[7] = dose: 125.0 mg/kg/injection, vehicle: saline
[8] = dose: 250.0 mg/kg/injection, vehicle: saline
[9] = dose: 500.0 mg/kg/injection, vehicle: saline
[10] = dose: 1.25 mg/kg/injection, vehicle: saline
[11] = dose: 5.0 mg/kg/injection, vehicle: saline
[12] = dose: 10.0 mg/kg/injection, vehicle: saline
[13] = dose: 8.0 mg/kg/injection, vehicle: saline
[14] = dose: 16.0 mg/kg/injection, vehicle: saline
[15] = dose: 32.0 mg/kg/injection, vehicle: saline
[16] = dose: 20.0 mg/kg/injection, vehicle: saline
[17] = dose: 40.0 mg/kg/injection, vehicle: saline
[18] = dose: 7.5 mg/kg/injection, vehicle: saline
[19] = dose: 15.0 mg/kg/injection, vehicle: saline
[20] = dose: 30.0 mg/kg/injection, vehicle: saline
[21] = dose: 60.0 mg/kg/injection, vehicle: saline
[22] = dose: 25.0 mg/kg/injection, vehicle: saline
[23] = dose: 4.0 mg/kg/injection, vehicle: saline

Nc1nc(=S)c2ncn(C3OC(CO)C(O)C3O)c2[nH]1 (configuration not stated)
T/C [1]: 100 % of control | T/C [2]: 106 % of control | T/C [3]: 102 % of control and 115 % of control | T/C [4]: 100 % of control

S=P(N1CC1)(N1CC1)N1CC1
T/C (dose: 0.05 mg/kg/injection, vehicle: saline): 106 % of control | T/C (dose: 0.75 mg/kg/injection, vehicle: saline): 110 % of control | T/C (dose: 1.5 mg/kg/injection, vehicle: saline): 117 % of control and 123 % of control | T/C (dose: 6.0 mg/kg/injection, vehicle: saline): 114 % of control

Nc1c(Br)cc2c(c1Br)Cc1cc([N+](=O)[O-])ccc1-2
T/C (dose: 15.6 mg/kg/injection, vehicle: saline): 100 % of control | T/C [5]: 107 % of control and 118 % of control | T/C [6]: 107 % of control and 111 % of control | T/C [7]: 111 % of control and 114 % of control | T/C [8]: 103 % of control

C1CN1c1nc(N2CC2)nc(N2CC2)n1
T/C (dose: 0.13 mg/kg/injection, vehicle: saline): 94 % of control and 105 % of control | T/C [1]: 100 % of control and 102 % of control | T/C [2]: 108 % of control | T/C [3]: 97 % of control

OCC1OC(n2cnc3c(Cl)ncnc32)C(O)C1O (configuration not stated)
T/C [6]: 100 % of control and 103 % of control | T/C [7]: 94 % of control and 103 % of control | T/C [8]: 94 % of control and 106 % of control | T/C [9]: 94 % of control and 100 % of control

CC[C@]1(O)C[C@H]2CN(CCc3c([nH]c4ccccc34)[C@@](C(=O)OC)(c3cc4c(cc3OC)N(C=O)[C@H]3[C@@](O)(C(=O)OC)[C@H](OC(C)=O)[C@]5(CC)C=CCN6CC[C@]43[C@@H]65)C2)C1
T/C (dose: 0.03 mg/kg/injection, vehicle: saline): 104 % of control and 121 % of control | T/C (dose: 0.06 mg/kg/injection, vehicle: saline): 108 % of control | T/C (dose: 0.12 mg/kg/injection, vehicle: saline): 158 % of control | T/C [2]: 104 % of control

Nc1nc(N)c2nc(CNc3ccc(C(=O)NC(CCC(=O)O)C(=O)O)cc3)cnc2n1 (configuration not stated)
T/C (dose: 0.05 mg/kg/injection, vehicle: other): 96 % of control and 110 % of control | T/C (dose: 0.1 mg/kg/injection, vehicle: other): 110 % of control and 114 % of control | T/C (dose: 0.2 mg/kg/injection, vehicle: other): 116 % of control and 117 % of control

N#[N+]c1cnc([O-])[nH]c1=O
T/C [10]: 113 % of control | T/C [11]: 150 % of control | T/C [12]: 176 % of control

O=C(Nc1ccc(C2=NCCN2)cc1)c1cccc(C(=O)Nc2ccc(C3=NCCN3)cc2)c1
T/C [13]: 113 % of control and 121 % of control | T/C [14]: 120 % of control | T/C [15]: 170 % of control and 189 % of control | T/C (dose: 64.0 mg/kg/injection, vehicle: saline): 235 % of control

CC1CN1P(=S)(N1CC1C)N1CC1C (configuration not stated)
T/C [10]: 103 % of control | T/C (dose: 2.5 mg/kg/injection, vehicle: saline): 93 % of control and 115 % of control | T/C [11]: 100 % of control and 111 % of control | T/C [12]: 111 % of control and 120 % of control | T/C [16]: 115 % of control

S=P(N1CCOCC1)(N1CC1)N1CC1
T/C (dose: 0.63 mg/kg/injection, vehicle: saline): 100 % of control | T/C [10]: 100 % of control

O=C(O)c1[nH]c(=O)[nH]c(=O)c1F
T/C [10]: 120 % of control | T/C [11]: 163 % of control and 175 % of control | T/C [12]: 96 % of control

Cc1cc(N(CCCl)CCCl)ccc1N=Nc1ccccc1C(=O)O
T/C [12]: 171 % of control | T/C [16]: 150 % of control and 166 % of control

N=C(N)SCc1c2ccccc2c(CSC(=N)N)c2ccccc12
T/C [11]: 170 % of control | T/C [12]: 211 % of control | T/C [16]: 303 % of control | T/C [17]: 96 % of control

Clc1ncnc2nc[nH]c12
T/C [18]: 100 % of control and 102 % of control | T/C [19]: 90 % of control and 94 % of control | T/C [20]: 90 % of control and 105 % of control | T/C [21]: 96 % of control and 100 % of control

CC(=O)N(C)C
T/C [6]: 87 % of control | T/C [8]: 88 % of control | T/C [9]: 100 % of control

CO[C@@H]1[C@@H](OC2OC(C)C(OC3CC(C)(O)C(OC(=O)CC(C)C)C(C)O3)C(N(C)C)C2O)[C@@H](CC=O)C[C@@H](C)C(=O)/C=C/C2O[C@H]2C[C@@H](C)OC(=O)C[C@H]1OC(C)=O (some centres not stated)
T/C (dose: 37.5 mg/kg/injection, vehicle: saline): 100 % of control and 107 % of control | T/C (dose: 75.0 mg/kg/injection, vehicle: saline): 100 % of control and 111 % of control | T/C (dose: 150.0 mg/kg/injection, vehicle: saline): 100 % of control and 118 % of control | T/C (dose: 300.0 mg/kg/injection, vehicle: saline): 100 % of control and 111 % of control

OC(CBr)C(O)C(O)C(O)CBr (configuration not stated)
T/C [22]: 115 % of control | T/C (dose: 50.0 mg/kg/injection, vehicle: saline): 115 % of control | T/C (dose: 200.0 mg/kg/injection, vehicle: saline): 115 % of control

CN(C)c1ccc(/C=C/c2ccnc3ccccc23)cc1
T/C [23]: 93 % of control and 103 % of control | T/C [13]: 96 % of control and 100 % of control | T/C [14]: 93 % of control and 100 % of control

N#CCSc1ncnc2nc[nH]c12
T/C [19]: 103 % of control | T/C [20]: 100 % of control and 107 % of control | T/C [21]: 100 % of control and 107 % of control | T/C (dose: 120.0 mg/kg/injection, vehicle: saline): 107 % of control

O=CCC(O)C(O)C(O)CO (configuration not stated)
T/C [6]: 100 % of control | T/C [7]: 100 % of control and 103 % of control | T/C [8]: 103 % of control and 107 % of control | T/C [9]: 100 % of control and 110 % of control

CCCSc1ncnc2nc[nH]c12
T/C [5]: 93 % of control and 96 % of control | T/C [7]: 93 % of control and 96 % of control

CN1CC[C@]23c4c5ccc(O)c4O[C@H]2C(=O)CC[C@H]3[C@H]1C5
T/C [23]: 96 % of control | T/C [13]: 100 % of control and 103 % of control | T/C [14]: 96 % of control and 100 % of control | T/C [15]: 96 % of control and 100 % of control

CN(C)[C@@H]1C(=O)C(C(N)=O)=C(O)[C@@]2(O)C(=O)C3=C(O)c4c(O)cccc4C[C@H]3C[C@@H]12
T/C (dose: 3.75 mg/kg/injection, vehicle: saline): 114 % of control | T/C [18]: 107 % of control and 111 % of control | T/C [19]: 107 % of control | T/C [20]: 100 % of control and 107 % of control

CCCNc1ncnc2[nH]ncc12
T/C (dose: 3.13 mg/kg/injection, vehicle: saline): 109 % of control and 111 % of control | T/C (dose: 6.25 mg/kg/injection, vehicle: saline): 103 % of control and 123 % of control | T/C (dose: 12.5 mg/kg/injection, vehicle: saline): 103 % of control and 117 % of control | T/C [22]: 91 % of control and 109 % of control

O=c1[nH]c(=O)n(C2CC(O)C(CO)O2)cc1F (configuration not stated)
T/C [12]: 103 % of control | T/C [16]: 116 % of control and 123 % of control | T/C [17]: 119 % of control

CN(C)c1ccc(Nc2c3ccccc3nc3ccccc23)cc1
T/C (dose: 36.0 mg/kg/injection, vehicle: saline): 107 % of control | T/C (dose: 54.0 mg/kg/injection, vehicle: saline): 100 % of control and 115 % of control | T/C (dose: 80.0 mg/kg/injection, vehicle: saline): 121 % of control and 123 % of control

O=C(Nc1ccc(NC2=NCCN2)cc1)c1ccc(C(=O)Nc2ccc(NC3=NCCN3)cc2)cc1
T/C [4]: 113 % of control and 121 % of control | T/C [13]: 207 % of control | T/C [14]: 96 % of control

Cc1c2oc3c(C)ccc(C(=O)N[C@@H]4C(=O)N[C@H](C(C)C)C(=O)N5CCC[C@H]5C(=O)N(C)CC(=O)N(C)[C@@H](C(C)C)C(=O)O[C@H]4C)c3nc-2c(C(=O)N[C@@H]2C(=O)N[C@H](C(C)C)C(=O)N3CCC[C@H]3C(=O)N(C)CC(=O)N(C)[C@@H](C(C)C)C(=O)O[C@H]2C)c(N)c1=O (I: [aThr][dV]P[Sar][NMeV] / II: [aThr][dV]P[Sar][NMeV]; ester I:1-I:C, II:1-II:C; linker I:N-II:N via Actinocin(9to1))
T/C (dose: 12.5 micrograms/kg/injection, vehicle: other): 114 % of control and 123 % of control | T/C (dose: 25.0 micrograms/kg/injection, vehicle: other): 123 % of control | T/C (dose: 50.0 micrograms/kg/injection, vehicle: other): 150 % of control and 179 % of control | T/C (dose: 100.0 micrograms/kg/injection, vehicle: other): 194 % of control

COCCCNP(=S)(N1CC1)N1CC1
T/C [2]: 93 % of control | T/C [3]: 100 % of control | T/C [4]: 113 % of control | T/C [23]: 116 % of control
